Test results from patent US4254115A, “Phospholipid derivative with an antilipemic and antiarteriosclerotic effect” (A. Nattermann & Cie. GmbH, priority 1979, dated 1981).
Where two headings read alike, the source gives them in different places.

Legend:
[1] = Acute toxicity, rat; assay type: in vivo; settings: in vivo
[2] = system: rat; experiment: Acute toxicity, rat; assay type: in vivo
[3] = system: serum lipids; experiment: Biochemical screening (unstressed rat); assay type: in vivo; settings: oral, serum after 4 h
Method: (c) Biochemical screening
In accordance with the procedures set forth in Fletcher, M. J., Clin. Chim. […] Four hours later serum was analyzed for lipids and evaluated against a control group.

[4] = system: triton-WR 1339 hyperlipemia (serum lipids); experiment: Acute triton test (1 × prophylactic application) on rats; assay type: in vivo
Method: (a) Prophylactic application
The n-oleyl derivative (i.e., n-oleyl cephalin) was orally administered to the test animals. […] Forty-eight hours after the triton application, serum was analyzed for lipids and compared with a control group.

[5] = system: triton-WR 1339 hyperlipemia (serum lipids); experiment: Acute triton test (1 × therapeutic application) on rats; assay type: in vivo; settings: for minimal effective dose: Rattus norvegicus, po, 48 h
Method: (b) Therapeutic application
One hour later the n-oleyl cephalin was orally administered. Forty-eight hours after the triton is administered, serum is analyzed for lipids and evaluated against a control group.

[6] = Acute toxicity, mouse; assay type: in vivo; settings: in vivo
[7] = system: mouse; experiment: Acute toxicity, mouse; assay type: in vivo
[8] = background knowledge; cited from earlier work
[9] = clofibrate, prophylactic, whole test, no single lipid named
[10] = lowest effective dose, oral, prophylactic
[11] = oral, 24 h before triton, serum 48 h after triton
[12] = lowest dose with drop, therapeutic
[13] = oral, 1 h after triton, serum 48 h after triton

In the case of `CCOC(=O)C(C)(C)Oc1ccc(Cl)cc1` [Clofibrate, reference compound], the LD50 [1] is reported as 1100 mg/kg, the LD0 rat [2] is reported as ~ 681 mg/kg BW and the minimal effective dose ([3]; read-out: Total cholesterol Drop from) is reported as 50 mg/kg. The minimal effective dose ([3]; read-out: Total lipids Drop from) was 100 mg/kg, the minimal effective dose ([3]; read-out: Triglycerides Drop from) was 50 mg/kg and the “Dosing ... very effective” value [4, 9] was 500 mg/kg BW. The “Dosings up to ... ineffective” value [4, 9] was “up to 250 mg/kg BW”, the minimal effective dose ([5]; lowest dose with drop, therapeutic, read-out: Phospholipids Drop from) was 500 mg/kg and the minimal effective dose ([5]; lowest dose with drop, therapeutic, read-out: Total lipids Drop from) was 250 mg/kg. The minimal effective dose ([5]; lowest dose with drop, therapeutic, read-out: Triglycerides Drop from) was 250 mg/kg, the “Free cholesterol No effect up to” value ([5]; therapeutic) was at most 500 mg/kg BW and the “Total cholesterol No effect up to” value ([5]; therapeutic) was at most 500 mg/kg BW. For the same compound, the LD50 [6] was 2960 mg/kg and the LD0 mouse [7] was ~ 1470 mg/kg BW.

In the case of `CCCCC/C=C\C/C=C\CCCCCCCC(=O)NC1CCCCC1` [cyclohexyllinolamide], the “antiarteriosclerotic, antilipemic, metabolic or lipid-reducing effect in words” value [8] is given as “lipid-reducing effect”.

For “n-oleylphosphatidylethanolamine [N-oleylcephalin]”, the LD0 rat [2] was over 5000 mg/kg BW, the LD50 rat [2] was over 5000 mg/kg BW and the “Free cholesterol Drop from” value [3] was 50 mg/kg BW. For the same compound, the “Phospholipids Drop from” value [3] was 50 mg/kg BW, the “Total cholesterol Drop from” value [3] was 50 mg/kg BW and the “Total lipids Drop from” value [3] was 50 mg/kg BW. For the same compound, the “Triglycerides Drop from” value [3] was 50 mg/kg BW, the “Free cholesterol Effect from” value [4, 10] was 0.10 mg/kg BW and the “Total cholesterol Effect from” value [4, 10] was 0.01 mg/kg BW. The “Phospholipids E.D.50” value [4, 11] was 0.62 mg/kg BW, the “Total lipids E.D.50” value [4, 11] was 0.29 mg/kg BW and the “Triglycerides E.D.50” value [4, 11] was 0.18 mg/kg BW. For the same compound, the “Free cholesterol Drop from” value [5, 12] was 0.10 mg/kg BW, the “Phospholipids Drop from” value [5, 12] was 0.10 mg/kg BW and the “Total cholesterol E.D.50” value [5, 13] was 278.86 mg/kg BW. The “Total lipids E.D.50” value [5, 13] was 8.49 mg/kg BW, the LD0 mouse [7] was over 4640 mg/kg BW and the LD50 mouse [7] was over 4640 mg/kg BW.
